Legend:
recombinant TOP1 = target: T1, recombinant TOP1 (Homo sapiens, UniProt P11387); test: TOP1-mediated DNA cleavage assay; type: biochemical; conditions: semiquantitative relative to CPT at 1 μM
T1 sequence (P11387 1-765): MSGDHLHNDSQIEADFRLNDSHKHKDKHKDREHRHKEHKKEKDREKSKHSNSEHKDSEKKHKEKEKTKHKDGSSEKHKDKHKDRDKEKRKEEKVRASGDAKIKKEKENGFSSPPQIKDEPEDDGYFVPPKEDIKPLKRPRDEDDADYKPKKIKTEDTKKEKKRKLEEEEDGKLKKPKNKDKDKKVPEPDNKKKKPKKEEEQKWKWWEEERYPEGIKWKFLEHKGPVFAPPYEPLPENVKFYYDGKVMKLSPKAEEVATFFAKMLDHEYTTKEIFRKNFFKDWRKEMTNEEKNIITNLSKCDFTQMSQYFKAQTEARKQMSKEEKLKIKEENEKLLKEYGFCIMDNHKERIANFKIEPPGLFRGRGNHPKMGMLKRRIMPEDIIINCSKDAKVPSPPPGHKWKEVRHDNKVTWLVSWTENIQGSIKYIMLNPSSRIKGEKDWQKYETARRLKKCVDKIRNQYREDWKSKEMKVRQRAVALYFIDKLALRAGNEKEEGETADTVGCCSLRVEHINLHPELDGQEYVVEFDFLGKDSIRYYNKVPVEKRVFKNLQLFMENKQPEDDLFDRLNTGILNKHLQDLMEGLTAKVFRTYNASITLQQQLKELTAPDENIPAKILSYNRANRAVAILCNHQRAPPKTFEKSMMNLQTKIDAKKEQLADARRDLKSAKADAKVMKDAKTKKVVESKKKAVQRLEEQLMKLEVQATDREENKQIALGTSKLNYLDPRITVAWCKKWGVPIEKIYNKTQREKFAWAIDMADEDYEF

recombinant human TDP1 = recombinant human TDP1 (Homo sapiens, UniProt Q9NUW8); test: TDP1 gel-based inhibition assay; type: biochemical
recombinant human TDP1, sequence (Q9NUW8 whole entry): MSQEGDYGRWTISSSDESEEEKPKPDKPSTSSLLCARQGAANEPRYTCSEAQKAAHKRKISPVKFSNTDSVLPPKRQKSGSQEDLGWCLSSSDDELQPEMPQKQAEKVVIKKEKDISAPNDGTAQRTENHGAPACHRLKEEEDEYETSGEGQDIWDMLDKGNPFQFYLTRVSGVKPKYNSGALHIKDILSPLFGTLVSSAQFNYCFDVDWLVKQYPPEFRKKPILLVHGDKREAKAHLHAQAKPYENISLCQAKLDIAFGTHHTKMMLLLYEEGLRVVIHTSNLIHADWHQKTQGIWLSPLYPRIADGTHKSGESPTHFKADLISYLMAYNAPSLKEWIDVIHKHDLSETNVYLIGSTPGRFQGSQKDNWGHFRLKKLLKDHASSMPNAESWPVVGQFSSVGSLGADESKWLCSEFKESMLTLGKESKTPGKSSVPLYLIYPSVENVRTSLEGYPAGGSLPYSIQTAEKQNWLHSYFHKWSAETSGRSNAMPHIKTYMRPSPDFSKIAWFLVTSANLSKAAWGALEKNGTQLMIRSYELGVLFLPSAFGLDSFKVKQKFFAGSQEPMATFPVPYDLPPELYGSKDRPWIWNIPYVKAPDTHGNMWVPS

HCT-116 cells = test: MTT cytotoxicity assay, HCT-116; type: cell-based, human; conditions: Homo sapiens, HCT-116, 72 h, read-out: GI50 ± SD (μM) HCT-116
MCF-7 cells [1] = test: MTT cytotoxicity assay, MCF-7; type: cell-based, human; conditions: Homo sapiens, MCF7, 72 h, read-out: GI50 ± SD (μM) MCF-7
MCF-7 cells [2] = test: Drug combination with TPT; type: cell-based, human; conditions: co-incubated with TPT for 96 h, 43 at 1 μM
[3] = tested on: MCF-7/TDP1 cells (overexpressing TDP1); test: Drug combination with TPT; type: cell-based, human; conditions: co-incubated with TPT for 96 h
[4] = target: T2, cellular TOP1ccs in MCF-7 cells (Homo sapiens, UniProt P11387); test: ICE assay for cellular TOP1cc; conditions: 1 h, 38 at 25, 50, 100 μM, TPT at 25 and 50 μM
T2 sequence (P11387 2-765 limits assumed): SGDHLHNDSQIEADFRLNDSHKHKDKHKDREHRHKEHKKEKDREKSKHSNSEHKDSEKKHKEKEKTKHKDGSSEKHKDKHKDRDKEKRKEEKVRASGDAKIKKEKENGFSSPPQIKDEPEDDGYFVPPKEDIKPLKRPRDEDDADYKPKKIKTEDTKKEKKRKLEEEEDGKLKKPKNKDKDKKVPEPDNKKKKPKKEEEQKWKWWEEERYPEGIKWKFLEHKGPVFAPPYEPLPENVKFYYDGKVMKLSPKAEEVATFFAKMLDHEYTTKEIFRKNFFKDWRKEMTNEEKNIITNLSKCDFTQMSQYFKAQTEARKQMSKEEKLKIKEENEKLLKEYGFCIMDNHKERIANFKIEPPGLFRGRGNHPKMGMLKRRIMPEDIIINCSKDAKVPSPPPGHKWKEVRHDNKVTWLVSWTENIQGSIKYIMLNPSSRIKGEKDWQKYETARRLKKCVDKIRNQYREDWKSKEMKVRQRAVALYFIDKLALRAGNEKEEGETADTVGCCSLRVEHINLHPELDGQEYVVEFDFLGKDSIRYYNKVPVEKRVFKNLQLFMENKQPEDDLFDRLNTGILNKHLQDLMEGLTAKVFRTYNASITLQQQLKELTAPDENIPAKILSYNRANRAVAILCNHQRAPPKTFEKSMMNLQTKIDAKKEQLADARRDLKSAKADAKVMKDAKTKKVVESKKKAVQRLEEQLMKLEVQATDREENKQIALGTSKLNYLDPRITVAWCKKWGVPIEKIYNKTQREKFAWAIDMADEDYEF

[5] = tested on: γH2AX foci in MCF-7 cells; test: γH2AX immunofluorescence assay; type: cell-based, human; conditions: 5 h
MCF-7 cells [6] = test: Flow cytometry apoptosis assay; type: cell-based, human; conditions: 4 µM, 24 h
[7] = target: cellular TDP1ccs in MCF-7 cells (Homo sapiens, UniProt Q9NUW8); conditions: 1 h
cellular TDP1ccs in MCF-7 cells, sequence (Q9NUW8 whole entry): as the sequence (Q9NUW8 whole entry) above

[8] = TOP1 cleavage inhibitory activity, Table 2

| SMILES | TOP1 Inhibition (recombinant TOP1; [8]) | IC50 (recombinant human TDP1) [µM] | GI50 (HCT-116 cells) [µM] | GI50 (MCF-7 cells [1]) [µM] | further results |
| --- | --- | --- | --- | --- | --- |
| COc1cc2c(=O)n(C)c3c4cc5c(cc4cc(OCCCN(C)C)c3c2cc1OC)OCO5 [Compound 35, 5-(3-(Dimethylamino)propoxy)-2,3-dimethoxy-12-methyl-[1,3]dioxolo[4’,5’:4,5]benzo[1,2-c]phenanthridin-13(12H)-one] | 0 | 18 ± 6.9 | 0.55 ± 0.17 | 1.2 ± 0.1 | TOP1 Inhibition (recombinant TOP1): no TOP1 inhibition; combination index (CI) with TPT (MCF-7 cells [2]): 0.02–0.69; combination index (CI) with TPT [3]: 0.003–0.51 |
| CCN(CC)CCCOc1cc2cc3c(cc2c2c1c1cc(OC)c(OC)cc1c(=O)n2C)OCO3 [Compound 37, 5-(3-(Diethylamino)propoxy)-2,3-dimethoxy-12-methyl-[1,3]dioxolo[4’,5’:4,5]benzo[1,2-c]phenanthridin-13(12H)-one] | + (+, between 20% and 50% activity) | 15 ± 2.4 | 2.4 ± 0.11 | 2 ± 0.1 | – |
| COc1cc2c(=O)n(C)c3c4cc5c(cc4cc(OCCN4CCCC4)c3c2cc1OC)OCO5 [Compound 38, 2,3-Dimethoxy-12-methyl-5-(2-(pyrrolidin-1-yl)ethoxy)-[1,3]dioxolo[4’,5’:4,5]benzo[1,2-c]phenanthridin-13(12H)-one] | +++ (+++, between 75% and 95% activity) | 37 to 111 | 0.25 ± 0.02 | 6.4 ± 1 | cellular TOP1cc trapping [4]: trapped cellular TOP1ccs in MCF-7 cells in a dose-dependent manner |
| COc1cc2c(=O)n(C)c3c4cc5c(cc4cc(OCCCN4CCCC4)c3c2cc1OC)OCO5 [Compound 39, 2,3-Dimethoxy-12-methyl-5-(3-(pyrrolidin-1-yl)propoxy)-[1,3]dioxolo[4’,5’:4,5]benzo[1,2-c]phenanthridin-13(12H)-one] | + (+, between 20% and 50% activity) | 15 ± 2.8 | 1.3 ± 0.21 | 1.4 ± 0.13 | – |
| COc1cc2c(=O)n(C)c3c4cc5c(cc4cc(OCCN4CCOCC4)c3c2cc1OC)OCO5 [Compound 40, 2,3-Dimethoxy-12-methyl-5-(2-morpholinoethoxy)-[1,3]dioxolo[4’,5’:4,5]benzo[1,2-c]phenanthridin-13(12H)-one] | ++ (++, between 50% and 75% activity) | > 111 | 15 ± 1.08 | 18 ± 0.67 | – |
| COc1cc2c(=O)n(C)c3c4cc5c(cc4cc(OCCCN4CCOCC4)c3c2cc1OC)OCO5 [Compound 41, 2,3-Dimethoxy-12-methyl-5-(3-morpholinopropoxy)-[1,3]dioxolo[4’,5’:4,5]benzo[1,2-c]phenanthridin-13(12H)-one] | + (+, between 20% and 50% activity) | > 111 | 3.3 ± 0.73 | 7.9 ± 1 | – |
| COc1cc2c(=O)n(C)c3c4cc5c(cc4cc(OCCCO)c3c2cc1OC)OCO5 [Compound 42, 5-(3-Hydroxypropoxy)-2,3-dimethoxy-12-methyl-[1,3]dioxolo[4’,5’:4,5]benzo[1,2-c]phenanthridin-13(12H)-one] | + (+, between 20% and 50% activity) | > 111 | 38 ± 2.31 | 51 ± 1.6 | – |
| COc1cc2c(=O)n(C)c3c4cc5c(cc4cc(OCCCNCCO)c3c2cc1OC)OCO5 [Compound 43, 5-(3-((2-Hydroxyethyl)amino)propoxy)-2,3-dimethoxy-12-methyl-[1,3]dioxolo[4’,5’:4,5]benzo [1,2-c]phenanthridin-13(12H)-one] | + (+, between 20% and 50% activity) | 10 ± 3.8 | 0.29 ± 0.19 | 2.2 ± 1.2 | combination index (CI) with TPT (MCF-7 cells [2]): 0.18–0.77; combination index (CI) with TPT [3]: 0.003–0.51; γH2AX foci, fold compared with TPT treated alone ([5]; co-treatment with TPT and 43 at 1 μM): about 1.9 fold; γH2AX foci, fold compared with TPT treated alone ([5]; co-treatment with TPT and 43 at 2 μM): ~2.4 fold; DNA damage (γH2AX foci) relative to that of TPT ([5]; compound alone at 1 μM): about one fifth; late apoptosis, % cells (MCF-7 cells [6]): ~28.58%; quantity of cellular TDP1cc ([7]; co-treated with TPT (10 μM) and 43 (10 and 100 μM)): significantly enhanced; cellular TDP1ccs ([7]; compound alone at 100 μM): significantly enhanced |
| COc1cc2c(=O)n(C)c3c4cc5c(cc4cc(OCCCn4ccnc4)c3c2cc1OC)OCO5 [Compound 44, 5-(3-(1H-imidazol-1-yl)propoxy)-2,3-dimethoxy-12-methyl-[1,3]dioxolo[4’,5’:4,5]benzo[1,2-c]phenanthridin-13(12H)-one] | 0/+ (0/+, less than 20%) | > 111 | 10 ± 1.2 | 7 ± 0.55 | – |
| COc1cc2c(=O)n(C)c3c4cc5c(cc4cc(OCCCN4CCN(c6cccc(C(F)(F)F)c6)CC4)c3c2cc1OC)OCO5 [Compound 45, 2,3-Dimethoxy-12-methyl-5-(3-(4-(3-(trifluoromethyl)phenyl)piperazin-1-yl)propoxy)-[1,3]dioxolo[4’,5’:4,5]benzo[1,2-c]phenanthridin-13(12H)-one] | 0 | > 111 | > 100 | 85 ± 3.8 | – |
| CC[C@@]1(O)C(=O)OCc2c1cc1n(c2=O)Cc2cc3c(CN(C)C)c(O)ccc3nc2-1 [TPT, Topotecan, reference compound] | – | – | – | – | γH2AX foci formation ([5]; alone): could obviously induce γH2AX foci formation; cellular TOP1cc trapping [4]: trapped cellular TOP1ccs |

Source: paper PMC10233710 (ChemMedChem, 2023)
